Assay results taken from patent US20250067726A1, “METHOD FOR ANALYZING PERSONALIZED ANTI-CANCER DRUGS IN CELL CULTURES” (PreComb Therapeutics AG, priority 2022, published 2025).
Like-named read-outs stand apart in the source and are kept apart here.

Columns and labels:
[1] = Pharmacokinetic parameters (t1/2, Cmax, tmax) identified for the drug panel; conditions: human, in vivo; Table 1, twice the half-life, main determinant for in vitro incubation time
Excerpt: The elimination half-life or drug half-life tin generally refers to the time required for half the dose of drug administered to be removed from the body. For those drugs to be tested, where a suitable tin can not be taken from the literature, and/or for the purpose of grouping or forming panels of drugs, tin values may be determined as follows.
In accordance with the existing guidelines, the rate (Cmax, tmax) and extent (AUC) of absorption of drug from a test formulation (vs. reference formulation) is evaluated using a single dose study in healthy volunteer subjects, followed by measuring the blood/plasma concentration of the parent drug and any major active metabolites (if present) for a time period of ≥3 t½.
For a determination of the parameters, blood samples are taken at 0, 1, 2, 3, 4, 5, 6, 7, and 8 hours, optionally followed by 10 and 12, 18, 24, 30, 36, and 42 hours after administration. As a general rule, the more frequently samples around the expected time of the maximum concentration are taken, the more accurate the value of t½ (and tmax and Cmax) are. The above determinations can be made in several individuals, and median values can be determined as parameter e.g. for grouping (see below), and testing.
Grouping or pre-selection of drugs can be achieved based on one or more of the following parameters that are known to the person of skill: • i) Cmax—the value defining the maximal concentration used, • ii) t½, —time until 1/2 of the drug is cleared by the patient/cells (half-life), • iii) Duration of action [h] (length of time that particular drug is effective), • iv) Elimination time [h] (time it takes for the concentration of the drug in the plasma or the total amount in the body to be removed), • v) Area under the curve (AUC) [ng*h/ml], • vi) Clearance (CL) [L/h]

[2] = cited from earlier work; for Cmax Human: Table 2, human
[3] = tested on: Panc-1 cancer cells and NIH3T3 fibroblasts microtumor; test: Redosing example: pancreatic cancer microtumor model, drug response; type: cell-based; conditions: dosed once for 7 h or re-dosed for another 7 h with 48 h recovery in between; four independent experiments
Procedure: (§1) A pancreatic cancer microtumor model consisting of Panc-1 cancer cells and NIH3T3 fibroblasts were treated with either Gemcitabine or 5-Flurouracil. Both drugs were dosed either once for 7 hours or re-dosed for another 7 h with a 48 h recovery time in between (four independent experiments).
as §1, with “(GEM) and/or 5-Flurouracil (5-FU).” for “or 5-Flurouracil.”

| Compound | twice the half-life (2 × t1/2) [1] [min] | t1/2 ([2]; Table 1, elimination half-life) [h] | Cmax Human [2] [µg/mL] | t1/2 ([2]; Table 2) [h] | Efficiency on redosing versus single dosing [3] | tmax ([2]; Table 2) [h] |
| --- | --- | --- | --- | --- | --- | --- |
| CC(=O)Nc1cccc(-n2c(=O)n(C3CC3)c(=O)c3c(Nc4ccc(I)cc4F)n(C)c(=O)c(C)c32)c1 [Trametinib] | 576 | 4.8 | 0.022 | 4.35 |  |  |
| O=C1[O][Pt]2([NH][C@@H]3CCCC[C@H]3[NH]2)[O]C1=O [Oxaliplatin] |  |  | 1.2 | 1.86 |  |  |
| C#Cc1cccc(Nc2ncnc3cc(OCCOC)c(OCCOC)cc23)c1 [Erlotinib] | 2930 |  | 2.3 |  |  | 5.5 |
| CC(=O)O[C@@]12CO[C@@H]1C[C@H](O)[C@@]1(C)C(=O)[C@H](O)C3=C(C)[C@@H](OC(=O)[C@H](O)[C@@H](NC(=O)OC(C)(C)C)c4ccccc4)C[C@@](O)([C@@H](OC(=O)c4ccccc4)[C@H]21)C3(C)C [Docetaxel] | 4920 | 41 | 1.5 to 2.5 | 41 |  |  |

Now from value to compound, other results behind:

| twice the half-life (2 × t1/2) [1] [min] | Compound | t1/2 ([2]; Table 1, elimination half-life) [h] | Cmax Human [2] [µg/mL] | t1/2 ([2]; Table 2) [h] | Efficiency on redosing versus single dosing [3] | tmax ([2]; Table 2) [h] |
| --- | --- | --- | --- | --- | --- | --- |
| 36 | O=c1[nH]cc(F)c(=O)[nH]1 [Fluorouracil] | 0.3 |  |  | did not improve |  |
| 1430 | O=C(c1cc(Cc2n[nH]c(=O)c3ccccc23)ccc1F)N1CCN(C(=O)C2CC2)CC1 [Olaparib] | 11.9 | 5.8 | 11.9 |  | 1.3 |
| 27.6 | Nc1ccn([C@@H]2O[C@H](CO)[C@@H](O)C2(F)F)c(=O)n1 [Gemcitabine] | 0.23 | 18.5 | 0.23 | increased efficiency |  |
| 528 | Nc1nc2[nH]cc(CCc3ccc(C(=O)N[C@@H](CCC(=O)O)C(=O)O)cc3)c2c(=O)[nH]1 [Pemetrexed] | 4.4 | 90 to 150 | 4.4 |  |  |
